# Molecular target: NGF (Homo sapiens, UniProt P01138)
# Assay: SPR (Biacore T100) kinetic analysis of NGF binding to immobilized glycopeptides
# Conditions: for kon: read-out: association rate constant ka of NGF binding (SPR), SEM
# Method: SPR technology was employed to facilitate quantitative, real-time kinetic analysis of glycopeptide–NGF binding. Biotinylated glycopeptides and CS-E polysaccharides were immobilized on streptavidin-coated surface at normalized levels by molecular weights, and the interactions with NGF were investigated as a function of NGF concentration.
# Surface Plasmon Resonance (SPR): Affinity measurements were performed using a Biacore T100
# system (GE Healthcare). The CM5 sensor chip was used for all measurements. The sensor was primed
# with HBS-EP+ (10 mM HEPES pH 7.4, 150 mM NaCl, 3.4 mM EDTA, 0.005% P20, GE Healthcare)
# buffer and was activated using amine coupling through 1:1 mixture of 0.4 M EDC and 0.1 M NHS.
# Streptavidin solution (0.008mg/ml) in Acetate 5.0 buffer (GE Healthcare) was used and remaining
# activated groups were blocked with 1 M solution of ethanolamine (pH 8.5). The final amount of
# streptavidin covalently immobilized on the surface was typically 700 RU. Flow cell 1 (or 3) was used as a
# reference to subtract nonspecific binding, drift, and the bulk refractive index, while flow cell 2 (or 4) was
# further immobilized with either glycopeptides or CS-E polysaccharides. Either biotinylated glycopeptides
# or CS-E polysaccharides (20 nM) were dissolved in HBS-EP+ buffer and were injected to flow cell 2 (or
# 4) at 30 µL/min until the baseline response increased by 104, 127, and 110 RU, for glycopeptide 5, 1, and
# CS-E polysaccharides, respectively. For a given affinity measurement, these series of peptide solutions
# were successively injected into the flow cells for 240 seconds of contact time and 800 seconds of
# dissociation time using a flow rate of 50 μL/min at 25 °C. Flow cell was regenerated using 2.5 M MgCl2
# at 30 μL/min. Association (ka) and dissociation (kd) rate constants were calculated with a 1:1 binding
# model using Biacore evaluation software, and KD values were calculated from the ratio of kd to ka. Kinetic
# NGF, sequence (P01138 122-241): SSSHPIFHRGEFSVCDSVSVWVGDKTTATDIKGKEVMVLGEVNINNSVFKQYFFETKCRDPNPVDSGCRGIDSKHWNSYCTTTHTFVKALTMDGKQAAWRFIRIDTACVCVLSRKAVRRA
Compound,Kd [nM],kon [M⁻¹ s⁻¹]
COC(=O)[C@@H]1C[C@@H](n2cc(CO[C@@H]3O[C@H](COS(=O)(=O)O)[C@H](OS(=O)(=O)O)[C@H](O[C@@H]4O[C@H](C(=O)O)[C@@H](O)[C@H](O)[C@H]4O)[C@H]3NC(C)=O)nn2)CN1C(=O)[C@@H]1C[C@@H](n2cc(CO[C@@H]3O[C@H](COS(=O)(=O)O)[C@H](OS(=O)(=O)O)[C@H](O[C@@H]4O[C@H](C(=O)O)[C@@H](O)[C@H](O)[C@H]4O)[C@H]3NC(C)=O)nn2)CN1C(=O)[C@@H]1C[C@@H](n2cc(CO[C@@H]3O[C@H](COS(=O)(=O)O)[C@H](OS(=O)(=O)O)[C@H](O[C@@H]4O[C@H](C(=O)O)[C@@H](O)[C@H](O)[C@H]4O)[C@H]3NC(C)=O)nn2)CN1C(=O)[C@@H]1C[C@@H](n2cc(CO[C@@H]3O[C@H](COS(=O)(=O)O)[C@H](OS(=O)(=O)O)[C@H](O[C@@H]4O[C@H](C(=O)O)[C@@H](O)[C@H](O)[C@H]4O)[C@H]3NC(C)=O)nn2)CN1C(=O)[C@@H]1C[C@@H](n2cc(CO[C@@H]3O[C@H](COS(=O)(=O)O)[C@H](OS(=O)(=O)O)[C@H](O[C@@H]4O[C@H](C(=O)O)[C@@H](O)[C@H](O)[C@H]4O)[C@H]3NC(C)=O)nn2)CN1C(=O)[C@@H]1C[C@@H](n2cc(CO[C@@H]3O[C@H](COS(=O)(=O)O)[C@H](OS(=O)(=O)O)[C@H](O[C@@H]4O[C@H](C(=O)O)[C@@H](O)[C@H](O)[C@H]4O)[C@H]3NC(C)=O)nn2)CN1C(=O)[C@@H]1C[C@@H](n2cc(CO[C@@H]3O[C@H](COS(=O)(=O)O)[C@H](OS(=O)(=O)O)[C@H](O[C@@H]4O[C@H](C(=O)O)[C@@H](O)[C@H](O)[C@H]4O)[C@H]3NC(C)=O)nn2)CN1C(=O)[C@@H]1C[C@@H](n2cc(CO[C@@H]3O[C@H](COS(=O)(=O)O)[C@H](OS(=O)(=O)O)[C@H](O[C@@H]4O[C@H](C(=O)O)[C@@H](O)[C@H](O)[C@H]4O)[C@H]3NC(C)=O)nn2)CN1C(=O)[C@@H]1C[C@@H](n2cc(CO[C@@H]3O[C@H](COS(=O)(=O)O)[C@H](OS(=O)(=O)O)[C@H](O[C@@H]4O[C@H](C(=O)O)[C@@H](O)[C@H](O)[C@H]4O)[C@H]3NC(C)=O)nn2)CN1C(=O)[C@@H]1C[C@@H](n2cc(CO[C@@H]3O[C@H](COS(=O)(=O)O)[C@H](OS(=O)(=O)O)[C@H](O[C@@H]4O[C@H](C(=O)O)[C@@H](O)[C@H](O)[C@H]4O)[C@H]3NC(C)=O)nn2)CN1C(=O)[C@@H]1C[C@@H](n2cc(CO[C@@H]3O[C@H](COS(=O)(=O)O)[C@H](OS(=O)(=O)O)[C@H](O[C@@H]4O[C@H](C(=O)O)[C@@H](O)[C@H](O)[C@H]4O)[C@H]3NC(C)=O)nn2)CN1C(=O)[C@@H]1C[C@@H](n2cc(CO[C@@H]3O[C@H](COS(=O)(=O)O)[C@H](OS(=O)(=O)O)[C@H](O[C@@H]4O[C@H](C(=O)O)[C@@H](O)[C@H](O)[C@H]4O)[C@H]3NC(C)=O)nn2)CN1C(=O)CCOCCOCCOCCOCCOCCOCCOCCOCCOCCOCCOCCOCCNC(=O)CCCC[C@@H]1SC[C@@H]2NC(=O)N[C@@H]21 [compound 1],3570,346
COC(=O)[C@@H]1C[C@@H](n2cc(CO[C@@H]3O[C@H](COS(=O)(=O)O)[C@H](OS(=O)(=O)O)[C@H](O[C@@H]4O[C@H](C(=O)O)[C@@H](O)[C@H](O)[C@H]4O)[C@H]3NC(C)=O)nn2)CN1C(=O)[C@@H]1CCCN1C(=O)[C@@H]1CCCN1C(=O)[C@@H]1C[C@@H](n2cc(CO[C@@H]3O[C@H](COS(=O)(=O)O)[C@H](OS(=O)(=O)O)[C@H](O[C@@H]4O[C@H](C(=O)O)[C@@H](O)[C@H](O)[C@H]4O)[C@H]3NC(C)=O)nn2)CN1C(=O)[C@@H]1CCCN1C(=O)[C@@H]1CCCN1C(=O)[C@@H]1C[C@@H](n2cc(CO[C@@H]3O[C@H](COS(=O)(=O)O)[C@H](OS(=O)(=O)O)[C@H](O[C@@H]4O[C@H](C(=O)O)[C@@H](O)[C@H](O)[C@H]4O)[C@H]3NC(C)=O)nn2)CN1C(=O)[C@@H]1CCCN1C(=O)[C@@H]1CCCN1C(=O)[C@@H]1C[C@@H](n2cc(CO[C@@H]3O[C@H](COS(=O)(=O)O)[C@H](OS(=O)(=O)O)[C@H](O[C@@H]4O[C@H](C(=O)O)[C@@H](O)[C@H](O)[C@H]4O)[C@H]3NC(C)=O)nn2)CN1C(=O)[C@@H]1CCCN1C(=O)[C@@H]1CCCN1C(=O)[C@@H]1C[C@@H](n2cc(CO[C@@H]3O[C@H](COS(=O)(=O)O)[C@H](OS(=O)(=O)O)[C@H](O[C@@H]4O[C@H](C(=O)O)[C@@H](O)[C@H](O)[C@H]4O)[C@H]3NC(C)=O)nn2)CN1C(=O)[C@@H]1CCCN1C(=O)[C@@H]1CCCN1C(=O)[C@@H]1C[C@@H](n2cc(CO[C@@H]3O[C@H](COS(=O)(=O)O)[C@H](OS(=O)(=O)O)[C@H](O[C@@H]4O[C@H](C(=O)O)[C@@H](O)[C@H](O)[C@H]4O)[C@H]3NC(C)=O)nn2)CN1C(=O)[C@@H]1CCCN1C(=O)[C@@H]1CCCN1C(=O)[C@@H]1C[C@@H](n2cc(CO[C@@H]3O[C@H](COS(=O)(=O)O)[C@H](OS(=O)(=O)O)[C@H](O[C@@H]4O[C@H](C(=O)O)[C@@H](O)[C@H](O)[C@H]4O)[C@H]3NC(C)=O)nn2)CN1C(=O)[C@@H]1CCCN1C(=O)[C@@H]1CCCN1C(=O)[C@@H]1C[C@@H](n2cc(CO[C@@H]3O[C@H](COS(=O)(=O)O)[C@H](OS(=O)(=O)O)[C@H](O[C@@H]4O[C@H](C(=O)O)[C@@H](O)[C@H](O)[C@H]4O)[C@H]3NC(C)=O)nn2)CN1C(=O)[C@@H]1CCCN1C(=O)[C@@H]1CCCN1C(=O)[C@@H]1C[C@@H](n2cc(CO[C@@H]3O[C@H](COS(=O)(=O)O)[C@H](OS(=O)(=O)O)[C@H](O[C@@H]4O[C@H](C(=O)O)[C@@H](O)[C@H](O)[C@H]4O)[C@H]3NC(C)=O)nn2)CN1C(=O)[C@@H]1CCCN1C(=O)[C@@H]1CCCN1C(=O)[C@@H]1C[C@@H](n2cc(CO[C@@H]3O[C@H](COS(=O)(=O)O)[C@H](OS(=O)(=O)O)[C@H](O[C@@H]4O[C@H](C(=O)O)[C@@H](O)[C@H](O)[C@H]4O)[C@H]3NC(C)=O)nn2)CN1C(=O)[C@@H]1CCCN1C(=O)[C@@H]1CCCN1C(=O)[C@@H]1C[C@@H](n2cc(CO[C@@H]3O[C@H](COS(=O)(=O)O)[C@H](OS(=O)(=O)O)[C@H](O[C@@H]4O[C@H](C(=O)O)[C@@H](O)[C@H](O)[C@H]4O)[C@H]3NC(C)=O)nn2)CN1C(=O)[C@@H]1CCCN1C(=O)[C@@H]1CCCN1C(=O)[C@@H]1C[C@@H](n2cc(CO[C@@H]3O[C@H](COS(=O)(=O)O)[C@H](OS(=O)(=O)O)[C@H](O[C@@H]4O[C@H](C(=O)O)[C@@H](O)[C@H](O)[C@H]4O)[C@H]3NC(C)=O)nn2)CN1C(=O)[C@@H]1CCCN1C(=O)[C@@H]1CCCN1C(=O)CCOCCOCCOCCOCCOCCOCCOCCOCCOCCOCCOCCOCCNC(=O)CCCC[C@@H]1SC[C@@H]2NC(=O)N[C@@H]21 [compound 5],146,13400
